{"source": "patent US8969312B2", "about": "“Low side effect pharmaceutical composition containing antituberculosis drugs” (priority 2011, dated 2015)", "key": {"CYP2E1 [1]": {"biological_target": "T1, CYP2E1 (Homo sapiens, UniProt P05181)", "T1 sequence (P05181 whole entry)": "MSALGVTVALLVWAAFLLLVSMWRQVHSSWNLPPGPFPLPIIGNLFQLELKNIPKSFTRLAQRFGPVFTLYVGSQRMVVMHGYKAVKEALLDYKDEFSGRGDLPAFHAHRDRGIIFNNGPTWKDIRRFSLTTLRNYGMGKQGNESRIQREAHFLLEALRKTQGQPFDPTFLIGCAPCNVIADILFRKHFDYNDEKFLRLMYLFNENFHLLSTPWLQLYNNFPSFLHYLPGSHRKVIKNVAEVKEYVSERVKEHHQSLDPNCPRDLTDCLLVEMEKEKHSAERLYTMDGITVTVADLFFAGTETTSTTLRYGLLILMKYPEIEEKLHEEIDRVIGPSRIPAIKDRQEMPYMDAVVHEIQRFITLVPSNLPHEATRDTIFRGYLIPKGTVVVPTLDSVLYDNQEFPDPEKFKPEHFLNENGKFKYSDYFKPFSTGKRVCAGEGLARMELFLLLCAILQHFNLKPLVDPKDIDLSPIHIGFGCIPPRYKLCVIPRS", "assay": "Human liver microsomal CYP2E1, chlorzoxazone 6-hydroxylation;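 on all read-outs here: chlorzoxazone added as substrate, 6-hydroxychlorzoxazone formation quantified by LC/MS/MS after 30 min at 37 °C with NADP+ regenerating system, compared against solvent control without test sample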", "details": "human; for inhibition at 30 min, 0.167 % (w/v): microsomes, pH 7.4", "description": "(§1) Microsomes prepared from human liver were used to extract cytochrome P450 2E1 (CYP2E1) and CYP2E1 inhibitors were screened from 39 Chinese medicine guiding drugs and 10 excipients. Chlorzoxazone hydroxylation is a reaction catalyzed primarily by CYP2E1 in liver. The extracted human liver microsomal cytochrome P450 2E1 (CYP2E1) was mixed with its substrate, Chlorzoxazone, and test sample was then added Inhibition of CYP2E1 activity was calculated by measuring CYP2E1 standard metabolite, 6-OH-CZX (6-Hydroxy-Chlorzoxazone), and compared with control 6-OH-CZX.\n(§2) After incubation, 16 mM Chlorzoxazone and test samples were added to experimental groups; methanol:sterilized water at 1:1 ratio was added to control groups and DDTC was added to positive control groups,\n(§3) Finally, cofactor 1 mM NADP^+, 10 mM G6P and 2 IU G6PD were added and reaction mixtures were transferred to pre-incubation 37° C. water bath for 1 mM and activity was measured after 30 min of reaction\n(§4) At the end of reaction, 500 μl acetonitrile was added to stop the reaction followed by 5 g/mL 4-hydroxy-tobutamide after 1 mM incubation. The mixture was then centrifuged and 20 L of supernatant was diluted ten times with methanol/sterilized water and 5 L was used for LC/MS/MS analysis. […] The inhibition of CYP2E1 was then calculated by the following equation:"}, "CYP2E1 [2]": {"biological_target": "T1, CYP2E1", "assay": "in vitro", "details": "human liver microsomes, pH 7.4, probe chlorzoxazone (6-hydroxylation)", "description": "as §1, §2, §3, §4"}, "[3]": {"biological_target": "T2, human liver microsomal cytochrome P450 2E1 (CYP2E1) (Homo sapiens, UniProt P05181)", "T2 sequence (P05181 whole entry)": "as above", "description": "as §1, §2, §3, §4"}, "[4]": {"biological_target": "T2, human liver microsomal cytochrome P450 2E1 (CYP2E1)", "assay": "Human liver microsomal CYP2E1, chlorzoxazone 6-hydroxylation", "description": "as §1, §2, §3, §4"}, "129/sv mice [5]": {"system": "129/sv mice", "assay": "Mouse study of INH/RIF with oral Kaempferol, Mannitol, Saccharin, Sucralose, Dicalcium phosphate or Crospovidone", "assay_type": "in vivo", "details": "3 weeks, in words", "excerpt": "Animals were randomized into one of thirteen groups, each involving three treatments. […].\nAll mice were subjected to GSP test."}, "129/sv mice [6]": {"system": "129/sv mice", "assay": "Mouse study of INH/RIF(/PZA) with i.p. Kaempferol or Quercetin", "quoted_text": "Animals were randomized into one of seven groups, each involving five treatments.\nAll mice were subjected to GSP tests."}, "[7]": {"biological_target": "cytochrome P450 2E1 (CYP2E1) (Homo sapiens, UniProt P05181)", "sequence (P05181 whole entry)": "as above", "assay": "CYP2E1 High Throughput Inhibitor Screening Kit, cDNA synthesized microsomal CYP2E1 (MFC to HFC)", "details": "Table 3; minimum tested concentration (mg/L) × volume of human liver and intestine (3L)", "excerpt": "CYP2E1 High Throughput Inhibitor Screening Kit (BD Bioscience, USA) was used to screen the cytochrome P450 (CYP2E1) inhibitors from 22 Chinese medicine guiding drugs and 10 excipients and microsomal cytochrome P450 (CYP2E1) was synthesized from cDNA (BD Bioscience, USA). The principle of the screening kit is to measure the percentage of CYP2E inhibition, after adding the test sample to substrate MFC (7-Methoxy-4-trifluoromethyl coumarin) and cytochrome P450 (CYP2E1), by measuring the synthesis of standard CYP2E1 metabolite (HFC, 7-Hydroxy-4-trifluoromethyl coumarin) and use control HFC as baseline.\na. 149 μl NADPH-Cofactor Mix and 1 μl 20 mM DDTC were added to the #1 well in a 96-well plate and mixed thoroughly,\nb. Add 100 μl Cofactor/acetonitrile mix to #2 to #12 wells, and well #1 to #8 are positive control. Well #9 and 10 are control and well #11 and #12 are blank,\nc. […] Preparation of Experimental Groups: a. […] Transfer 50 μl from well #1 and #2 and added to well #3 and mixed thoroughly (triplicate for each sample), 3. Initiation and Termination of the Reaction: a. The 96-well plate was incubated at 37° C. for […], b. 100 μl of Enzyme/Substrate Mix was added to every well and mixed thoroughly except the blank wells, c. The 96-well plate was incubated at 37° C. for 40 min, d. 75 μl Stop Solution was added to every well and mixed thoroughly, e. Immediately add 100 μl Enzyme/Substrate Mix to blank wells and mixed thoroughly, f. Measure with a Fluoroskan Ascent FL (Thermo Electron Corporation, Finland) with excitation at 405 nm and emission at 538 nm, 4. The fluorescence was transverse into CYP 2E1 metabolite standard (HFC) concentration (pmol) and the percentage (%) of CYP 2E1 inhibition was calculated using control as baseline by following equation: […]"}, "129/sv mice [8]": {"system": "129/sv mice", "assay": "Mouse study of INH/RIF/PZA with oral Mannitol (GSP)", "assay_type": "in vivo", "details": "in words", "description": "Mice were anesthetized with ether at the dose of 50 mg/kg and galactose was retro-orbitally injected and blood samples were collected 60 min after injection through tail vein.\nAnimals were randomized into one of three groups, each involving four treatments. […] The second treatment involved injections of 50 mg/kg INH or INH vehicle (VEH1, normal saline). […] The third treatment involved injections of RIF (100 mg/kg) or RIF vehicle (VEH2, saline). […] The fourth treatment involved injections of PZA (250 mg/kg) or PZA vehicle (VEH3, saline)."}, "amidase": {"system": "amidase", "assay": "Mouse liver microsomal amidase, isoniazid to isonicotinic acid", "assay_type": "biochemical"}, "[9]": {"details": "human liver microsomes, pH 7.4, probe Chlorzoxazone"}, "[10]": {"details": "daily i.p. 3 weeks, INH/RIF 50/100 mg/kg, Kaempferol 3.78 mg/kg"}}, "data": [{"compound": "OC[C@@H](O)[C@@H](O)[C@H](O)[C@@H](O)CO", "note": "[Sorbitol]", "values": [{"measurement": "inhibition at 30 min, 0.08 % (w/v)", "setting": "CYP2E1 [1]; [9]", "result": "5.6 ± 0.5", "unit": "%"}, {"measurement": "inhibition at 30 min, 0.167 % (w/v)", "setting": "CYP2E1 [1]", "result": "16.1 ± 0.7", "unit": "%"}, {"measurement": "inhibition at 30 min, […]", "setting": "CYP2E1 [2]", "result": "4.4 ± 1.7", "unit": "%"}]}, {"compound": "Sodium starch glycolate", "values": [{"measurement": "inhibition", "setting": "[3]", "result": "34.7 ± 1.3", "unit": "%"}]}, {"compound": "CCCCCCCCCCCCCCCCCC(=O)OCC(O)CO", "note": "(centres unmarked) [Glycerrin monostearate]", "values": [{"measurement": "Inhibition of CYP 2E1", "setting": "[4]; 0.08% (w/v)", "result": "7.4 ± 2.9", "unit": "%"}, {"measurement": "Inhibition of CYP 2E1", "setting": "[4]; 0.167% (w/v)", "result": "6.9 ± 3.8", "unit": "%"}, {"measurement": "inhibition", "setting": "[3]", "result": "5.8 ± 1.7", "unit": "%"}]}, {"compound": "O=c1c(O)c(-c2ccc(O)cc2)oc2cc(O)cc(O)c12", "note": "[Kaempferol]", "values": [{"measurement": "Minimum Effective Dose", "setting": "[4]; Table 6, minimum tested concentration (mg/L) × volume of human liver and intestine (3 L)", "result": 16, "unit": "mg"}, {"measurement": "GSP values over treatment time", "setting": "129/sv mice [5]", "result": "remained constant"}, {"measurement": "liver function tests", "setting": "129/sv mice [6]; Kaempferol 1.89 mg/kg with INH/RIF, in words", "result": "no obvious reduction"}, {"measurement": "GOT", "setting": "129/sv mice [6]; [10]", "result": "89±19", "unit": "U/L"}, {"measurement": "GPT", "setting": "129/sv mice [6]; [10]", "result": "48±21", "unit": "U/L"}, {"measurement": "Minimum Effective Dose", "setting": "[7]", "result": 16, "unit": "mg"}]}, {"compound": "Tween 80", "values": [{"measurement": "inhibition", "setting": "[3]", "result": "23.1 ± 3", "unit": "%"}]}, {"compound": "OCc1ccccc1", "note": "[Benzyl alcohol]", "values": [{"measurement": "inhibition at 30 min, 0.08 % (w/v)", "setting": "CYP2E1 [1]; [9]", "result": "6.7 ± 1", "unit": "%"}, {"measurement": "inhibition at 30 min, 0.167 % (w/v)", "setting": "CYP2E1 [1]", "result": "-10.3 ± 6.3", "unit": "%"}, {"measurement": "inhibition at 30 min, […]", "setting": "CYP2E1 [2]", "result": "7.7 ± 2.6", "unit": "%"}]}, {"compound": "OC[C@@H](O)[C@@H](O)[C@H](O)[C@H](O)CO", "note": "[Mannitol]", "values": [{"measurement": "GSP values over treatment time", "setting": "129/sv mice [8]", "result": "reamined constant"}, {"measurement": "Minimum Effective Dose", "setting": "[4]; Table 7", "result": 10, "unit": "mg"}, {"measurement": "inhibition at 30 min, 16.5 µM", "setting": "CYP2E1 [1]; [9]", "result": "44.8 ± 1.8", "unit": "%"}, {"measurement": "inhibition at 30 min, 33 µM", "setting": "CYP2E1 [1]; [9]", "result": "51.2 ± 2.1", "unit": "%"}, {"measurement": "inhibition at 30 min, 66 µM", "setting": "CYP2E1 [1]; [9]", "result": "54.5 ± 4.2", "unit": "%"}, {"measurement": "Amidase inhibition", "setting": "amidase; 0.0005%", "result": "58.3 ± 4.3", "unit": "%"}, {"measurement": "Amidase inhibition", "setting": "amidase; 0.005%", "result": "52.8 ± 7.6", "unit": "%"}, {"measurement": "Amidase inhibition", "setting": "amidase; 0.05%", "result": "1.9 ± 6.0", "unit": "%"}, {"measurement": "GSP values over treatment time", "setting": "129/sv mice [5]", "result": "remained constant"}]}]}
